The source of these data is patent US6689803B2, “Compositions and methods for treating surgical adhesions” (Angiotech Pharmaceuticals, Inc., priority 1996, dated 2004).

The subject of data set [1] is chick chorioallantoic membrane (CAM) vasculature.
Data set [2] has as its system aggrecan mRNA. The experiment in a line: Expression of proteoglycan (aggrecan) in chondrocytes. Format: cell-based, calf. Particulars: all concentrations evaluated (10^−7 M to 10^−4 M). The protocol:
Primary chondrocyte cultures were freshly isolated from calf cartilage. The cells were plated at 2.5×10^6 per ml in 100×20 mm culture dishes and incubated in Ham's F12 medium containing 5% FBS overnight at 37° C. The cells were starved in serum-free medium overnight and then treated with anti-microtubule agents at various concentrations (10^−7 M, 10^−6 M, 10^−5 M and 10^−4 M) for 6 hours. […] Total RNA was isolated by the acidified guanidine isothiocyanate method and subjected to electrophoresis on a denatured gel. […] The exposed films were scanned and quantitatively analyzed with ImageQuant.

The subject of data set [3] is collagenase (MMP-1) mRNA. The experiment in a line: IL-1 induced collagenase mRNA expression in chondrocytes (Northern blot). Format: cell-based, calf. To be noted: pre-incubation 6 hours, IL-1 20 ng/ml 18 hours. The protocol:
Total RNA was isolated, and the MMP-1 mRNA levels were determined by Northern blot analysis. The blots were subsequently stripped and reprobed with ^32P-radiolabeled rat GAPDH cDNA, which was used as a housekeeping gene. The results shown are representative of four independent experiments. Quantitation of collagenase-1 and stromelysin-expression mRNA levels. The MMP-1 and MMP-3 expression levels were normalized with GAPDH.
Primary chondrocyte cultures were freshly isolated from calf cartilage. The cells were plated at 2.5×10^6 per ml in 100×20 mm culture dishes and incubated in Ham's F12 medium containing 5% FBS overnight at 37° C. […] IL-1 (20 ng/ml) was then added to each plate and the plates incubated for an additional 18 hours. Total RNA was isolated by the acidified guanidine isothiocyanate method and subjected to electrophoresis on a denatured gel. Denatured RNA samples (15 μg) were analyzed by gel electrophoresis in a 1% denatured gel, transferred to a nylon membrane and hydridized with the ^32P-labeled collagenase cDNA probe. ^32P-labeled glyceraldehyde phosphate […] (GAPDH) cDNA as an internal standard to ensure roughly equal loading. The exposed films were scanned and quantitatively analyzed with ImageQuant.

Data set [4] deals with neutrophils. The experiment in a line: Neutrophil chemiluminescence assay (opsonized CPPD crystals or zymosan). The data set is classed as cell-based, human. The protocol: (§1) All experiments that studied neutrophil responses to crystals or zymosan in the presence of paclitaxel were performed using plasma opsonized CPPD or zymosan. Opsonization of crystals or zymosan was done with 50% heparinized plasma at a concentration of 75 mg of CPPD or 12 mg of zymosan per ml of 50% plasma Crystals or zymosan were incubated with plasma for 30 minutes at 37° C. and then washed in excess HBSS.
(§2) Neutrophil viability and purity was always greater than 90%.
A stock solution of LY290181 at 100 μM in HBSS was freshly prepared.
All chemiluminescence studies were performed at a cell concentration of 5,000,000 cells/ml in HBSS with CPPD (50 mg/ml). In all experiments 0.5 ml of cells was added to 25 mg of CPPD or 0.5 mg of zymosan in 1.5 ml capped Eppendorf tubes. 10 μl of luminol dissolved in 25% DMSO in HBSS was added to a final concentration of 1 μM and the samples were mixed to initiate neutrophil activation by the crystals or zymosan. Chemiluminescence was monitored using an LKB Luminometer (Model 1250) at 37° C. for 20 minutes with shaking immediately prior to measurements to resuspend the crystals or zymosan. Control tubes contained cells, drug and luminol (crystals absent).

Data set [5] deals with synoviocytes. As to the kind of experiment: Proliferation assay (MTT). Format: cell-based. Particulars: 24-hour exposure. The protocol: On day one, 5-10×10^4 synoviocytes were plated per well (96-well plate). Column #1 was kept free of cells (blank). On day 2, the plate was flicked to discard the medium and 200 μl of medium containing various concentrations of drug was added. […] There was no drug added to columns #1 and #2 (blank and untreated control, respectively). The medium containing the drug was discarded and 200 μl of fresh complete medium was added. The cells were then left to grow for an additional 3 to 4 days. On day five, 20 μl of dimethylthiazol diphenyltetrazolium bromide salt (MTT) (5 mg/ml PBS) was added and allowed to incubate for 4 hours at 37° C. The medium was decanted and 200 μl of DMSO was added.
The data were expressed as the % of survival which was obtained by dividing the number of cells remaining after treatment by the number of cells in the untreated control column #2 (the number of cells was obtained from a standard done prior to the assay).

For data set [6], the system named is neutrophils. As to the kind of experiment: Superoxide anion generation by neutrophils. The data set is classed as cell-based, human. Particulars: 17 μM; CPPD crystals. As to the method: as §1, §2
Superoxide anion concentrations were measured using the superoxide dismutase inhibitable reduction of cytochrome C assay. Briefly, 25 mg of crystals or 0.5 mg of zymosan was placed in a 1.5 ml capped Eppendorf tube and warmed to 37° C. 0.5 ml of cells at 37° C. were added together with ferricytochrome C (final concentration 1.2 mg/ml) and the cells were activated by shaking the capped tubes. At appropriate times tubes were centrifuged at 10,000 g for 10 seconds and the supernatant collected for assay be measuring the absorbance of 550 nm. Control tubes were set up under the same conditions with the inclusion of superoxide dismutase at 600 units per ml.

Data set [7] relates to neutrophils. As to the kind of experiment: Neutrophil degranulation assay (myeloperoxidase, lysozyme release). Format: cell-based, human. Particulars: 17 μM; CPPD crystals. As to the method: as §2
One and a half milliliter Eppendorf tubes containing either 25 mg of CPPD or 1 mg of zymosan were preheated to 37° C. 0.5 ml of cells at 37° C. were added followed by vigorous shaking to initiate the reactions. At appropriate times, tubes were centrifuged at 10,000 g for 10 seconds and 0.4 ml of supernatant was stored at −20° C. for later assay.
Lysozyme was measured by the decrease in absorbance at 450 nm of a Micrococcus lysodeikticus suspension. Briefly, Micrococcus lysodeikticus was suspended at 0.1 mg/ml in 65 mM potassium phosphate buffer, pH 6.2 and the absorbance at 450 nm was adjusted to 0.7 units by dilution. The crystal (or zymosan) and cell supernatant (100 μl) was added to 2.5 ml of the Micrococcus suspension and the decrease in absorbance was monitored. Lysozyme standards (chicken egg white) in the 0 to 2000 units/ml range were prepared and a calibration graph of lysozyme concentration against the rate of decrease in the absorbance at 450 nm was obtained.
Myeloperoxidase (MPO) activity was measured by the increase in absorbance at 450 nm that accompanies the oxidation of dianisidine. 7.8 mg of dianisidine was dissolved in 100 ml of 0.1 M citrate buffer, pH 5.5 at […] by sonication. To a 1 ml cuvette, 0.89 ml of the dianisidine solution was added, followed by 50 μl of 1% Triton x 100, 10 μl of a 0.05% hydrogen peroxide in water solution and 50 μl of crystal-cell supernatant. MPO activity was determined from the change in absorbance (450 nm) per minute, Delta Å 450, using the following equation: […]

For data set [8], the system named is collagen-induced arthritis. The experiment in a line: CIA rat model, intraperitoneal micellar paclitaxel. Format: in vivo. As to the method:
As a comparison with standard therapy, a third group received methotrexate at 0.3 mg/kg i.p. (human equivalent dose) on days 0, 5 and 10 post-arthritis onset. […] The control (group 5) and experimental animals were evaluated for disease severity both clinically and radiographically by individuals blinded to treatment groups.
The severity of inflammation for each limb was evaluated daily and scored based on standardized levels of swelling and periarticular erythema (0 being normal and 4 severe). Animals were evaluated radiographically on day 28 of the experiment. […] Histological assessment of the joints was completed at the conclusion of the experiment.

pIC50: −log10 of the molar value. Like-named read-outs stand apart in the source and are kept apart here.

With `CC[C@]1(O)C[C@H]2CN(CCc3c([nH]c4ccccc34)[C@@](C(=O)OC)(c3cc4c(cc3OC)N(C=O)[C@H]3[C@@](O)(C(=O)OC)[C@H](OC(C)=O)[C@]5(CC)C=CCN6CC[C@]43[C@@H]65)C2)C1` [vincristine], the Inhibition/n result is “too toxic” in data set [1] (PCL paste (3 mg), 1%); “too toxic” in data set [1] (PCL paste (3 mg), 2%); “too toxic” in data set [1] (methylcellulose (10 ul), 1 ug); “too toxic” in data set [1] (methylcellulose (10 ul), 9 ug). Further, the “toxicity to the embryo” value in data set [1] (PCL paste, concentrations exceeding 2%) is given as “unexpected embryonic death occurred”.

“ethylene glycol bis-(succinimidylsuccinate)”: the expression of aggrecan result in data set [2] is “did not affect the expression of aggrecan”. Moreover, the “prevented IL-1-induced collagenase expression at concentrations as low as” value in data set [3] is 100 nM.

Consider aluminum fluoride, for which, in data set [2], the expression of aggrecan entry is on record as “did not affect the expression of aggrecan”. Also, the “inhibition of plasma opsonized zymosan-induced neutrophil chemiluminescence” value in data set [4] (5 to 100 mM) was “strong inhibition”. In data set [5], this compound had a pIC50 of about 4.49. For the same compound, in data set [3], the “prevented IL-1-induced collagenase expression at concentrations as low as” value was determined as 100 nM.

As to `[O]=[V]([O-])([O-])[O-]` [vanadate], the Inhibition/n in data set [1] (in vivo) is given as 0/5.

For herbimysin, the Inhibition/n in data set [1] (PCL paste (3 mg), 2%) was 3/4; in data set [1] (in vivo), 1/1.

In the case of `O=S(=O)([O-])[O-].[O]=[V+2]` [vanadyl sulphate], the Inhibition/n in data set [1] (in vivo) is 0/3.

As to `CC(O)CC(C)(C)O` (stereo not shown) [hexylene glycol, 2-methyl-2,4-pentanediol], the expression of aggrecan result in data set [2] is recorded as “did not affect the expression of aggrecan”. For the same compound, the “prevented IL-1-induced collagenase expression at concentrations as low as” value in data set [3] worked out at 100 nM.

As to `[2H]O[2H]` [deuterium oxide], the expression of aggrecan entry in data set [2] is reported as “did not affect the expression of aggrecan”. Moreover, the “prevented IL-1-induced collagenase expression at concentrations as low as” value in data set [3] was found to be 100 nM.

As for `Cc1occc(=O)c1[O-].Cc1occc(=O)c1[O-].[O]=[V+2]` [BMOV], the Inhibition/n result in data set [1] (PCL paste (3 mg), 10%) is on record as “too toxic”; in data set [1] (PCL paste (3 mg), 25%), “too toxic”; in data set [1] (PCL paste (3 mg), 35%) it was “too toxic”.

On to protamine sulphate, for which, in data set [1] (methylcellulose (10 ul), 100 ul ^), the Inhibition/n is listed as 1/10.

In the case of `C/C(=C\c1csc(C)n1)[C@@H]1C[C@@H]2O[C@]2(C)CCC[C@H](C)[C@H](O)[C@@H](C)C(=O)C(C)(C)[C@@H](O)CC(=O)O1` [epothilone B], the expression of aggrecan result in data set [2] is listed as “did not affect the expression of aggrecan”. In data set [5], this compound showed a pIC50 of about 7.35. The “prevented IL-1-induced collagenase expression at concentrations as low as” value in data set [3] came to 100 nM.

As for `N#CC1=C(N)Oc2c(ccc3ccccc23)C1c1cccnc1` (stereo not shown) [LY290181, 2-amino-4-(3-pyridyl)-4H-naphtho(1,2-b)pyran-3-cardonitrile], in data set [2], the expression of aggrecan entry is on record as “did not affect the expression of aggrecan”. In addition, the “inhibition of plasma opsonized zymosan-induced neutrophil chemiluminescence” value in data set [4] (0.5 to 50 μM) is recorded as “strong inhibition”. For the same compound, in data set [5], the negative logarithm of the IC50 (pIC50) is over 8.30. Moreover, the “prevented IL-1-induced collagenase expression at concentrations as low as” value in data set [3] amounted to 100 nM. The superoxide anion production entry in data set [6] is listed as “decrease in the amount of superoxide generated”. The Inhibition/n entry in data set [1] (PCL paste (3 mg), 1%) was “did not induce an anti-angiogenesis response”; in data set [1] (PCL paste (3 mg), 5%), “⅓”. In addition, the lysozyme release result in data set [7] is “decreased both lysozyme and myeloperoxidase release”. For the same compound, in data set [7], the myeloperoxidase release result is “decreased both lysozyme and myeloperoxidase release”.

`CN(Cc1cnc2nc(N)nc(N)c2n1)c1ccc(C(=O)N[C@@H](CCC(=O)O)C(=O)O)cc1` [methotrexate]: in data set [8] (0.3 mg/kg), the “Percentage of Animals with Erosions” value is recorded as 76% and the “Radiographic Score” value is 4.25 ± 0.64. Moreover, in data set [8] (0.3 mg/kg i.p.), the “Antibody to Collagenase II” value was determined as 0.182 ± 0.0034, the “Arthritic Index on Day 10” value was determined as 5.4 ± 0.6 and the “Maximum Mean Arthritis Score” value was found to be 5.7 ± 0.6.

For the compound `CCc1occc(=O)c1[O-].CCc1occc(=O)c1[O-].[O-2].[V+4]` [BEOV], the Inhibition/n entry in data set [1] (PCL paste (3 mg), 10%) was “too toxic”.

As for `COC(=O)/C=C/c1cc(O)ccc1O` [MDHC], the Inhibition/n in data set [1] (PCL paste (3 mg), 20%) is 0/8.

For `CCOC(=O)CN` [glycine ethyl ester], the expression of aggrecan result in data set [2] is “did not affect the expression of aggrecan”. Also, the “inhibition of plasma opsonized zymosan-induced neutrophil chemiluminescence” value in data set [4] (0.5 to 20 mM) is reported as “strong inhibition”. Moreover, the “prevented IL-1-induced collagenase expression at concentrations as low as” value in data set [3] is 100 nM.

As to baccatin, the Inhibition/n in data set [1] (methylcellulose (5 ul), 5 ug) was 4/7; in data set [1] (paste (2 mg), 2 ug), 2/3.

For `O=C(O)c1cc(NCc2cc(O)ccc2O)ccc1O` [lavendustine-c], the Inhibition/n in data set [1] (PCL paste (3 mg), 10%) was 0/14; in data set [1] (PCL paste (3 mg), 20%), 0/10.

What is called pIC50 is the IC50 on a negative log10 scale, so that one unit is a factor of ten.
